According to patent publication US9040545B2, “Heterocyclyl pyrazolopyrimidine analogues as selective JAK inhibitors” (Cellzome Limited, priority 2010, dated 2015):

Columns and labels:
Aurora A = molecular target: T1, Aurora A (Homo sapiens, UniProt O14965); experiment: Kinobeads assay, Aurora A; type: binding; conditions: for IC50: lysate of pervanadate-treated Jurkat cells, read-out: Inhibition values (IC50) Aur A
T1 construct: cell lysates from Jurkat cells (ATCC TIB-152) used; endogenous in cells; host or cells: Jurkat cells (ATCC TIB-152), treated with pervanadate
T1 sequence (O14965 1-403): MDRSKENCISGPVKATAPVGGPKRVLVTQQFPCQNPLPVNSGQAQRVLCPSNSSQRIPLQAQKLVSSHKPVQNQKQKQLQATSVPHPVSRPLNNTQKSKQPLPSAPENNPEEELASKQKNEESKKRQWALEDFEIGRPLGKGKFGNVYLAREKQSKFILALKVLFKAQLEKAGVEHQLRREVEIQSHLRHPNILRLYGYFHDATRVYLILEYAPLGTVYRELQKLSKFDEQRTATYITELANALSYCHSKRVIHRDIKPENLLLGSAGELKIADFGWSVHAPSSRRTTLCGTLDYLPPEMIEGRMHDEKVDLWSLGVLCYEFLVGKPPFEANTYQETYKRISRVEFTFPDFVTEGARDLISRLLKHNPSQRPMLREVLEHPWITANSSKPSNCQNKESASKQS
Protocol: (§1) The compounds of the present invention as described in the previous examples were tested in a Kinobeads™ assay as described for ZAP-70 (WO-A 2007/137867). Briefly, test compounds (at various concentrations) and the affinity matrix with the immobilized aminopyrido-pyrimidine ligand 24 were added to cell lysate aliquots and allowed to bind to the proteins in the lysate sample. After the incubation time the beads with captured proteins were separated from the lysate. Bound proteins were then eluted and the presence of JAK2 and JAK3 was detected and quantified using specific antibodies in a dot blot procedure and the Odyssey infrared detection system. Dose response curves for individual kinases were generated and IC50 values calculated. Kinobeads™ assays for ZAP-70 (WO-A 2007/137867) and for kinase selectivity profiling (WO-A 2006/134056) have been previously described.
(§2) The affinity matrix was washed two times with 15 mL of 1×DP buffer containing 0.2% NP40 (IGEPAL® CA-630, Sigma, #I3021) and then resuspended in 1×DP buffer containing 0.2% NP40 (3% beads slurry).
(§3) 5×DP buffer 250 mM Tris-HCl pH 7.4, 25% Glycerol, 7.5 mM MgCl2, 750 mM NaCl, 5 mM Na3VO4; filter the 5×DP buffer through a 0.22 μm filter and store in aliquots at −80° C. The 5×DP buffer is diluted with H2O to 1×DP buffer containing 1 mM DTT and 25 mM NaF.
(§4) Stock solutions of test compounds were prepared in DMSO. In a 96 well plate 30 μL solution of diluted test compounds at 5 mM in DMSO were prepared. Starting with this solution a 1:3 dilution series (9 steps) was prepared. For control experiments (no test compound) a buffer containing 2% DMSO was used.
(§5) Cell lysate (approximately 50 mg protein per plate) was thawed in a water bath at room temperature and then stored on ice. To the thawed cell lysate 1×DP 0.8% NP40 buffer containing protease inhibitors (1 tablet for 25 mL buffer; EDTA-free protease inhibitor cocktail; Roche Diagnostics 1873580) was added in order to reach a final protein concentration of 10 mg/mL total protein. The diluted cell lysate was stored on ice. Mixed Molt4/Ramos lysate was prepared by combining one volume of Molt4 lysate and two volumes of Ramos lysate (ratio 1:2).
To a 96 well filter plate (Multiscreen HTS, BV Filter Plates, Millipore #MSBVN1250) were added per well: 100 μL affinity matrix (3% beads slurry), 3 μL of compound solution, and 50 μL of diluted lysate. Plates were sealed and incubated for 3 hours in a cold room on a plate shaker (Heidolph tiramax 1000) at 750 rpm. Afterwards the plate was washed 3 times with 230 μL washing buffer (1×DP 0.4% NP40). The filter plate was placed on top of a collection 1 plate (Greiner bio-one, PP-microplate 96 well V-shape, 65120) and the beads were then eluted with 20 μL of sample buffer (100 mM Tris, pH 7.4, 4% SDS, 0.00025% bromophenol blue, 20% glycerol, 50 mM DTT). The eluate was frozen quickly at −80° C. and stored at −20° C.
The kinases in the eluates were detected and quantified by spotting on nitrocellulose membranes and using a first antibody directed against the kinase of interest and a fluorescently labelled secondary antibody (anti-rabbit IRDye™ antibody 800 (Licor, #926-32211). The Odyssey Infrared Imaging system from LI-COR Biosciences (Lincoln, Nebr., USA) was operated according to instructions provided by the manufacturer (Schutz-Geschwendener et al, 2004. Quantitative, two-color Western blot detection with infrared fluorescence. Published May 2004 by LI-COR Biosciences, www.licor.com).
After spotting of the eluates the nitrocellulose membrane (BioTrace NT; PALL, #BTNT30R) was first blocked by incubation with Odyssey blocking buffer (LICOR, 927-40000) for 1 hour at room temperature. Blocked membranes were then incubated for 16 hours at the temperature shown in Table 5 with the first antibody diluted in Odyssey blocking buffer (LICOR #927-40000). Afterwards the membrane was washed twice for 10 minutes with PBS buffer containing 0.2% Tween 20 at room temperature. […]

JAK2 = molecular target: T2, JAK2 (Homo sapiens, UniProt O60674); experiment: Kinobeads assay, JAK2; type: binding; conditions: mixed Molt4/Ramos lysate, read-out: Inhibition values (IC50) JAK2
T2 construct: endogenous in cells; host or cells: mixed Molt4/Ramos lysate (1:2)
Protocol: as §1, §2, §3, §4
Molt4 cells (ATCC catalogue number CRL-1582) and Ramos cells (ATCC catalogue number CRL-1596) were grown in 1 L Spinner flasks (Integra Biosciences, #182101) in suspension in RPMI 1640 medium (Invitrogen, #21875-034) supplemented with 10% Fetal Bovine Serum (Invitrogen) at a density between 0.15×106 and 1.2×10^6 cells/mL. Cells were harvested by centrifugation, washed once with 1×PBS buffer (Invitrogen, #14190-094) and cell pellets were frozen in liquid nitrogen and subsequently stored at −80° C. Cells were homogenized in a Potter S homogenizer in lysis buffer: 50 mM Tris-HCl, 0.8% NP40, 5% glycerol, 150 mM NaCl, 1.5 mM MgCl2, 25 mM NaF, 1 mM sodium vanadate, 1 mM DTT, pH 7.5. One complete EDTA-free tablet (protease inhibitor cocktail, Roche Diagnostics, 1873580) per 25 mL buffer was added. The material was dounced 10 times using a mechanized POTTER S, transferred to 50 mL falcon tubes, incubated for 30 minutes on ice and spun down for 10 minutes at 20,000 g at 4° C. (10,000 rpm in Sorvall SLA600, precooled). The supernatant was transferred to an ultracentrifuge (UZ)-polycarbonate tube (Beckmann, 355654) and spun for 1 hour at 100,000 g at 4° C. (33.500 rpm in Ti50.2, precooled). The supernatant was transferred again to a fresh 50 mL falcon tube, the protein concentration was determined by a Bradford assay (BioRad) and samples containing 50 mg of protein per aliquot were prepared. The samples were immediately used for experiments or frozen in liquid nitrogen and stored frozen at −80° C.
as §5
To a 96 well filter plate (Multiscreen HTS, BV Filter Plates, Millipore #MSBVN1250) were added per well: 100 μL affinity matrix (3% beads slurry), 3 μL of compound solution, and 50 μL of diluted lysate. […]

T2 sequence (O60674 whole entry): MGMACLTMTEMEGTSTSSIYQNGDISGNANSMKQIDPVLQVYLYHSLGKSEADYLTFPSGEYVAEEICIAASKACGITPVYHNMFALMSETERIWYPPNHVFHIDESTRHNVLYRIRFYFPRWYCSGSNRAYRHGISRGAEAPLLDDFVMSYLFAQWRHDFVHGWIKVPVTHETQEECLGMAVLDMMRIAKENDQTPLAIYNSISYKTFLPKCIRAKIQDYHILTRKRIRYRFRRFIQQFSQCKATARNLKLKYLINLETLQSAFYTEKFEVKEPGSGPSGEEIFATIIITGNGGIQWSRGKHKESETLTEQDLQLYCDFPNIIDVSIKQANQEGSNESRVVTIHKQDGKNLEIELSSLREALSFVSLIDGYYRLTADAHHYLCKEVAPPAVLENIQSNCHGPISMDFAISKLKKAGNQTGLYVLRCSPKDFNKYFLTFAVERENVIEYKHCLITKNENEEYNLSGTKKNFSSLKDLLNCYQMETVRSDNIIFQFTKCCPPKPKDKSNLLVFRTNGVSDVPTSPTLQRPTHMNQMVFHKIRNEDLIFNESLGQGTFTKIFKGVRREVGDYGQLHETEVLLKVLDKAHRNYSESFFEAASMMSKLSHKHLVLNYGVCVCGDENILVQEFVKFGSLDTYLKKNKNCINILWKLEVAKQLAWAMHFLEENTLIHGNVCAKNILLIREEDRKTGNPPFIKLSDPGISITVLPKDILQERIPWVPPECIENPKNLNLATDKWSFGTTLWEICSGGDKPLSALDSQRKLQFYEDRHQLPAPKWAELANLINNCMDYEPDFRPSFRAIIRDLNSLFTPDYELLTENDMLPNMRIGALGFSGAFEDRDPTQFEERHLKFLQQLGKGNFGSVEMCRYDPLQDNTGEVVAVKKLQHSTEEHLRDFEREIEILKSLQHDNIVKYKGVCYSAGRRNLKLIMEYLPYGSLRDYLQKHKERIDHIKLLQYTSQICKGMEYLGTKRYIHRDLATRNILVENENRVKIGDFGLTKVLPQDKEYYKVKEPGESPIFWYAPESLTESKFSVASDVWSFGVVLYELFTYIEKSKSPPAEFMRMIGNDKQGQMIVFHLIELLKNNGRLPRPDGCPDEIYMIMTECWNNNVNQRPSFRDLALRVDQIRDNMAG

| Structure (SMILES) | JAK3/AurA Fold Selectivity (Aurora A) | IC50 (Aurora A) | IC50 (JAK2) |
| --- | --- | --- | --- |
| C[C@@H]1COCCN1c1cccc(Cn2ncc3cnc(Nc4cnn(C)c4)nc32)n1 [Example 1, (R)—N-(1-Methyl-1H-pyrazol-4-yl)-1-((6-(3-methylmorpholino)pyridin-2-yl)methyl)-1H-pyrazolo[3,4-d]pyrimidin-6-amine] | 3-10 Fold | 100 to 1000 nM | ≥ 10000 nM |
| Cn1cc(Nc2ncc3cnn(Cc4cccc(N5CCOCC5)c4F)c3n2)cn1 [Example 21, 1-(2-Fluoro-3-morpholinobenzyl)-N-(1-methyl-1H-pyrazol-4-yl)-1H-pyrazolo[3,4-d]pyrimidin-6-amine] | >50 Fold | 100 to 1000 nM | 1000 to 10000 nM |
| Cn1cc(Nc2ncc3cnn(Cc4cccc(C(=O)N5CCOCC5)c4)c3n2)cn1 [Example 6, (3-((6-((1-Methyl-1H-pyrazol-4-yl)amino)-1H-pyrazolo[3,4-d]pyrimidin-1-yl)methyl)phenyl)(morpholino)methanone] | 10-50 Fold | 100 to 1000 nM | ≥ 10000 nM |
| Cn1cc(Nc2ncc3cnn(Cc4cccc(C5CCOCC5)c4)c3n2)cn1 [Example 9, N-(1-Methyl-1H-pyrazol-4-yl)-1-(3-(tetrahydro-2H-pyran-4-yl)benzyl)-1H-pyrazolo[3,4-d]pyrimidin-6-amine] | 10-50 Fold | 100 to 1000 nM | ≥ 10000 nM |
| CN1CCN(c2cccc(Cn3ncc4cnc(Nc5cnn(C)c5)nc43)c2)CC1 [Example 10, N-(1-Methyl-1H-pyrazol-4-yl)-1-(3-(4-methylpiperazin-1-yl)benzyl)-1H-pyrazolo[3,4-d]pyrimidin-6-amine] | 3-10 Fold | 100 to 1000 nM | ≥ 10000 nM |
| Cn1cc(Nc2ncc3cnn(Cc4cccc(N5CCOCC5=O)c4)c3n2)cn1 [Example 27, 4-(3-((6-((1-Methyl-1H-pyrazol-4-yl)amino)-1H-pyrazolo[3,4-d]pyrimidin-1-yl)methyl)phenyl)morpholin-3-one] | 10-50 Fold | 100 to 1000 nM | 1000 to 10000 nM |
| O=C(CCn1cc(Nc2ncc3cnn(Cc4cccc(N5CCOCC5)c4)c3n2)cn1)N1CCCCC1 [Example 20, 3-(4-((1-(3-Morpholinobenzyl)-1H-pyrazolo[3,4-d]pyrimidin-6-yl)amino)-1H-pyrazol-1-yl)-1-(piperidin-1-yl)propan-1-one] | 10-50 Fold | 100 to 1000 nM | ≥ 10000 nM |
| Cn1cc(Nc2ncc3cnn(Cc4cccc(N5CCOCC5)c4)c3n2)cn1 [Example 2, N-(1-Methyl-1H-pyrazol-4-yl)-1-(3-morpholinobenzyl)-1H-pyrazolo[3,4-d]pyrimidin-6-amine] | 10-50 Fold | 100 to 1000 nM | 1000 to 10000 nM |
| Cc1c(Cn2ncc3cnc(Nc4cnn(C)c4)nc32)cccc1N1CCOCC1 [Example 11, N-(1-Methyl-1H-pyrazol-4-yl)-1-(2-methyl-3-morpholinobenzyl)-1H-pyrazolo[3,4-d]pyrimidin-6-amine] | 10-50 Fold | 100 to 1000 nM | ≥ 10000 nM |

The remaining lines, values ahead:

| JAK3/AurA Fold Selectivity (Aurora A) | IC50 (Aurora A) | IC50 (JAK2) | Structure (SMILES) |
| --- | --- | --- | --- |
| 10-50 Fold | 100 to 1000 nM | 1000 to 10000 nM | CN(C)CC(F)Cn1cc(Nc2ncc3cnn(Cc4cc(F)cc(N5CCOCC5=O)c4)c3n2)cn1 (stereo not drawn) [Example 97, 4-(3-((6-((1-(3-(dimethylamino)-2-fluoropropyl)-1H-pyrazol-4-yl)amino)-1H-pyrazolo[3,4-d]pyrimidin-1-yl)methyl)-5-fluorophenyl)morpholin-3-one] |
| 10-50 Fold | 100 to 1000 nM | ≥ 10000 nM | Cn1cc(Nc2ncc3cnn(Cc4cccc(N5CCNCC5=O)c4)c3n2)cn1 [Example 36, 1-(3-((6-((1-Methyl-1H-pyrazol-4-yl)amino)-1H-pyrazolo[3,4-d]pyrimidin-1-yl)methyl)phenyl)piperazin-2-one] |
| 10-50 Fold | < 100 nM | 1000 to 10000 nM | O=C1COCCN1c1cc(F)cc(Cn2ncc3cnc(Nc4cnn(CC5CCNC5)c4)nc32)c1 (stereo not drawn) [Example 101, 4-(3-fluoro-5-((6-((1-(pyrrolidin-3-ylmethyl)-1H-pyrazol-4-yl)amino)-1H-pyrazolo[3,4-d]pyrimidin-1-yl)methyl)phenyl)morpholin-3-one] |
| 3-10 Fold | < 100 nM | 1000 to 10000 nM | Cn1cc(Nc2ncc3cnn(Cc4cccc(NC5COC5)c4)c3n2)cn1 [Example 114, N-(1-methyl-1H-pyrazol-4-yl)-1-(3-(oxetan-3-ylamino)benzyl)-1H-pyrazolo[3,4-d]pyrimidin-6-amine] |
| 10-50 Fold | 100 to 1000 nM | ≥ 10000 nM | Cn1cc(Nc2ncc3cnn(Cc4cccc(N5CC6(COC6)C5)c4)c3n2)cn1 [Example 89, 1-(3-(2-oxa-6-azaspiro[3.3]heptan-6-yl)benzyl)-N-(1-methyl-1H-pyrazol-4-yl)-1H-pyrazolo[3,4-d]pyrimidin-6-amine] |
| 10-50 Fold | 100 to 1000 nM | 1000 to 10000 nM | Cn1cc(Nc2ncc3cnn(Cc4cccc(-c5cnn(CC(N)=O)c5)c4)c3n2)cn1 [Example 120, 2-(4-(3-((6-((1-methyl-1H-pyrazol-4-yl)amino)-1H-pyrazolo[3,4-d]pyrimidin-1-yl)methyl)phenyl)-1H-pyrazol-1-yl)acetamide] |
